Reference: patent publication US9289400B2, “D3 dopamine receptor agonists to treat dyskinesia in parkinson's disease” (priority 2010, dated 2016)
pEC50: −log10 of the molar value. Values joined by “and” are separate entries in the source; they are usually repeats but may differ in a detail not shown here. Equal entries are not always repeated. Marks after values point to notes of the source that are not given here.

How the values were obtained:
Format in all cases: cell-based
[1] = target: T1, D2S dopamine receptor (Homo sapiens (Human), UniProt P14416); assay: GIRK channel activation, whole cell voltage clamp, AtT-20 cells stably expressing D2S; settings: for GIRK channel activation: agonist type: versus full agonist quinpirole
T1 sequence (P14416 other isoform, or with tags, fused parts or gaps): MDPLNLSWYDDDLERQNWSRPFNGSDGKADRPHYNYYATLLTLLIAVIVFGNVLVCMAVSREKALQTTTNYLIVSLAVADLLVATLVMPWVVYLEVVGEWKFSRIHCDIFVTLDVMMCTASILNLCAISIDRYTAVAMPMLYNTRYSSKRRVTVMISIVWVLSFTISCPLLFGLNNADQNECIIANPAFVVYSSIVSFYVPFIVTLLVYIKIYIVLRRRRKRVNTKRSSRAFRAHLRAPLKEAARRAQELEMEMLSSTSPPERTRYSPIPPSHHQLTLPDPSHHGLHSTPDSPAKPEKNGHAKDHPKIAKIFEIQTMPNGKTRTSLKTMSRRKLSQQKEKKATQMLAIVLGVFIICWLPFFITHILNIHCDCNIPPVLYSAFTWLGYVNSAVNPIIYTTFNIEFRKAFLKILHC
Method: (§1) The activation of the GIRK channels was measured electrophysiologically using whole cell voltage clamp recording (Kuzhikandathil et al., 2004, Mol. Cell. Neurosci. 26:144-155). The GIRK channel responses elicited with new ligands were compared to quinpirole, a classical full agonist of D2, D3 and D4 dopamine receptors. The adenylyl cyclase inhibition was determined using a commercially available ELISA assay (Westrich & Kuzhikandathil, 2007, Biochim. Biophys. Acta-Mol. Cell. Res. 1773:1747-1758).
In the first assay, whole cell voltage clamp recording is used to measure GIRK response to increasing concentrations of the lead compound (0.01 nM to 3,000 nM dose range). The EC50 values for each receptor subtype is determined by fitting the data points using the Hill equation.
(§2) AtT-20 mouse pituitary cells were grown in Ham's F10 medium with 5% FBS, 10% heat-inactivated horse serum, 2 mM glutamine and 50 μg/ml gentamicin (Invitrogen, Carlsbad, Calif.). AtT-20 cells stabling expressing the human D2S, D2L, D3, and D4.2 and receptor were maintained in the above F10 culture media supplemented with 500 μg/ml G418 (Invitrogen). For electrophysiological characterization, cells were plated onto glass coverslips coated with 40 μg/ml poly L-lysine (Sigma-Aldrich). The generation and characterization of the AtT-20 cells stably expressing various human dopamine receptors have been previously reported (Kuzhikandathil & Oxford, 2000, J. Gen. Physiol. 115:697-706; Kuzhikandathil et al., 1998, Mol. Cell. Neurosci. 12:390-402; Kuzhikandathil & Bartoszyk, 2006, Neuropharm. 51:873-884; Westrich & Kuzhikandathil, 2007, Biochim. Biophys. Acta-MCR 1773:1747-1758; Kuzhikandathil et al., 2004, Mol. Cell. Neurosci. 26:144-155; Westrich et al., 2010, Biochem. Pharmacol. 79:897-907).
(§3) Agonist-activated currents were measured by the whole-cell patch clamp technique in voltage clamp and current clamp mode as described previously (Kuzhikandathil & Oxford, 2000, J. Gen. Physiol. 115:697-706; Kuzhikandathil et al., 1998, Mol. Cell. Neurosci. 12:390-402; Kuzhikandathil & Bartoszyk, 2006, Neuropharm. 51:873-884; Westrich & Kuzhikandathil, 2007, Biochim. Biophys. Acta-MCR 1773:1747-1758; Kuzhikandathil et al., 2004, Mol. Cell. Neurosci. 26:144-155; Westrich et al., 2010, Biochem. Pharmacol. 79:897-907). Drug solutions were delivered to cells via a multi-barreled micropipette array. The current responses were normalized to the cell capacitance, to account for variation in cell size.
(§4) To compare the functional effects of the new class of D3 receptor agonists, PBZI (Table 2) and ES609 (Table 3) were tested on AtT-20 cells stably expressing human D3, D2S, D2L or D4.2. Functional efficacy was determined by assessing the ability of PBZI and ES609 to inhibit adenylyl cyclase or activate GIRK channels coupled to these “D2-like” dopamine receptors. The EC50 values of PBZI and ES609 for inhibiting adenylyl cyclase and activating GIRK channels were in the range of 0.2 nM to 30 nM for D3 receptors.

[2] = target: D3 dopamine receptor (Homo sapiens (Human), UniProt P35462); assay: GIRK channel activation, whole cell voltage clamp, AtT-20 cells stably expressing D3; settings: for specificity of agonist effect (eticlopride pretreatment / parental cells): D2/D3 antagonist eticlopride (100 nM); for GIRK channel activation: agonist type / pEC50: D3; for GIRK channel activation: agonist type: versus full agonist quinpirole; for pEC50: GIRK channel activation EC50, AtT-20 cells
D3 dopamine receptor, sequence (P35462 other isoform, or with tags, fused parts or gaps): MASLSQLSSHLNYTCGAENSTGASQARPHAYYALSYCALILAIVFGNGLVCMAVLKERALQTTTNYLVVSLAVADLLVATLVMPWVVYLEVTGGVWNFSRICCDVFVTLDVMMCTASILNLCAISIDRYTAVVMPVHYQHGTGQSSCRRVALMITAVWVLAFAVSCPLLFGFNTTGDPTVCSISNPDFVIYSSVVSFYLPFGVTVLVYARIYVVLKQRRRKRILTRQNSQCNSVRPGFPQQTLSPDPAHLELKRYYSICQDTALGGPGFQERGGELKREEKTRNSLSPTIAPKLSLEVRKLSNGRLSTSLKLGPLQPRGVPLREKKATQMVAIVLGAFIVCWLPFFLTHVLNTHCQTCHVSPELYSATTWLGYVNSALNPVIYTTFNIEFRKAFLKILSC
Method: as §1, with “[…].” for “The GIRK channel responses elicited with new ligands were compared to quinpirole, a classical full agonist of D2, D3 and D4 dopamine receptors.”
. In the initial screen, the ability of 300 nM lead compound to activate G-protein coupled inward rectifier potassium (GIRK) channels (FIG. 1) is measured using whole cell voltage clamp recording. The protocol has been previously used for performing whole cell voltage clamp and measuring agonist-induced GIRK response. […]. The EC50 values for each receptor subtype is determined by fitting the data points using the Hill equation.
as §2, with “[…].” for “The generation and characterization of the AtT-20 cells stably expressing various human dopamine receptors have been previously reported (Kuzhikandathil & Oxford, 2000, J. Gen.”
as §3
To compare the functional effects of the new class of D3 receptor agonists, PBZI (Table 2) and ES609 (Table 3) were tested on AtT-20 cells stably expressing human D3, D2S, D2L or D4.2. […]. The EC50 values of PBZI and ES609 for inhibiting adenylyl cyclase and activating GIRK channels were in the range of 0.2 nM to 30 nM for D3 receptors. […]. […]

[3] = target: T1, D2S dopamine receptor; assay: Adenylyl cyclase inhibition (forskolin-induced cAMP) in AtT-20 cells stably expressing D2S; settings: for pEC50: AtT-20 cells; for Adenylyl cyclase inhibition: agonist type: versus full agonist quinpirole
Method: In the second functional assay, the ability of D2-like dopamine receptors to inhibit adenylyl cyclase activity is assessed. The ability of the lead compound to dose-dependently decrease forskolin-induced cAMP levels is measured. The IC50 values for each receptor subtype is determined by fitting the data points using the Hill equation. Previously, the EC50 and IC50 values for dopamine and quinpirole has been determined in these cell lines in both functional assays.
as §2
Cyclic AMP (cAMP) levels were assessed using the cAMP Biotrak Enzymeimmunoassay (EIA) kit (GE Healthcare, Piscataway, N.J., USA) as described previously (Kuzhikandathil & Bartoszyk, 2006, Neuropharm. 51:873-884). The cAMP levels in each treated sample were assayed in triplicate and the entire experiment repeated three independent times.
as §4

SMILES | GIRK current compared with quinpirole-induced current ([1]; 100 nM) | GIRK channel activation Ratio of ES609 to quinpirole response (at 300 nM) ([1]; 300 nM) | GIRK channel activation: agonist type [1] | GIRK channel activation: agonist type ([1]; listed as ES0609) | specificity of agonist effect (eticlopride pretreatment / parental cells) [2] | GIRK channel activation Ratio of ES609 to quinpirole response (at 300 nM) ([2]; D3, 300 nM) | GIRK channel activation: agonist type [2] | GIRK channel activation: agonist type ([2]; listed as ES0609) | pEC50 [2] | Adenylyl cyclase inhibition Ratio of ES609 to quinpirole response (at 300 nM) ([3]; 300 nM) | pEC50 [3] | Adenylyl cyclase inhibition: agonist type [3] | Adenylyl cyclase inhibition: agonist type ([3]; listed as ES0609) | GIRK channel activation Ratio of PBZI to quinpirole response (at 300 nM) ([1]; 300 nM) | pEC50 ([1]; AtT-20 cells) | GIRK channel activation Ratio of PBZI to quinpirole response (at 300 nM) ([2]; D3, 300 nM) | Adenylyl cyclase inhibition Ratio of PBZI to quinpirole response (at 300 nM) ([3]; 300 nM)
CC(N)CCc1ccccc1Cl (centres unmarked) [ES609] | significantly less than the quinpirole-induced current | 0.30* | partial agonists | Partial | blocked by pretreatment with the antagonist, eticlopride | 0.86 | full agonist | Full | 7.52 | 0.29* | 8.62 | partial agonists | Partial | – | – | – | –
CCCN1CC[C@@H]2c3cc(O)ccc3CC[C@@H]21 [PBZI, (3aS,9bR)-3-propyl-1,2,3a,4,5,9b-hexahydrobenzo[e]indol-8-ol] | – | – | partial agonists | – | specific for D3 receptors | – | full agonists and full | – | 7.52 and 7.54 | – | 6.85 and < 6.82 | partial agonists | – | 0.48* | 7.28 | 1.3 | 0.29*
